These results are taken from patent US20120276124A1, “MAYTANSINOIDS AND THE USE OF SAID MAYTANSINOIDS TO PREPARE CONJUGATES WITH AN ANTIBODY” (priority 2009, published 2012).

For one assay, the system named is MDA-MB231. Briefly: Inhibition of growth of MDA-MB-231 tumor cells by free drugs (14C thymidine uptake). Format: cell-based. As to conditions: Homo sapiens, MDA-MB231, 96 hrs, read-out: cellular inhibition proliferation (IC50 in nM) MDA-MB231. On the procedure:
(§1) Inhibition of Growth of MDA-MB-231 and HCT116 Tumor Cells
(§2) Cells in exponential phase of growth were trypsinized and resuspended in their respective culture medium (DMEM/F12 Gibco #21331; 10% SVF Gibco #10500-056; […] Glutamine Gibco #25030 for MDA-MB231 & MDA-A1 cells; DMEM (Gibco #11960) 10%, SVF Gibco #10500-056; […] Glutamine Gibco #25030 for HCT116 cells). Cell suspension was distributed in 96-well Cytostar culture plates (GE Healthcare Europe, #RPNQ0163) in complete serum-containing media at a density of 5000 cells/well (MDA-MB231 HCT116). After coating for 4 hrs, serial dilutions were added to triplicate wells. Cells were cultured at 37° C./5% CO2 in the presence of the drug for 3 days. On the 4th day, 10 μl of a solution of 14C thymidine (0.1 μCi/well (Perkin Elmer #NEC56825000) was added to each well. The uptake of 14C thymidine was measured 96 hrs after the experiment has been started with a microbeta radioactive counter (Perkin Elmer). Cell-free reagent blanks were subtracted from the test well readings and the data were plotted as surviving fractions obtained by dividing readings of the conjugate-treated cells by the average of readings from control wells of vehicle-treated cells.

A further assay relates to HCT116. Put plainly: Inhibition of growth of HCT116 tumor cells by free drugs (14C thymidine uptake). Format: cell-based. As to conditions: Homo sapiens, HCT-116; HCT116, 96 hrs; read-out: cellular inhibition proliferation (IC50 in nM) HCT116. On the procedure:
as §1, §2

Structures are written as SMILES.

Take `COC(=O)CCOCCOCCOCCOCCNC(=O)CSC(C)(C)CCC(=O)N(C)[C@@H](C)C(=O)O[C@H]1CC(=O)N(C)c2cc(cc(OC)c2Cl)C/C(C)=C/C=C/[C@@H](OC)[C@@]2(O)C[C@H](OC(=O)N2)[C@@H](C)[C@@H]2O[C@@]12C` [Example 10, L-DM4-AcNH-PEG4-COOMe]: the IC50 in the assay with MDA-MB231 was determined as 15.3 nM; with HCT116 it was 13 nM.
For `COC(=O)CCOCCOCCOCCOCCN(C)C(=O)CSC(C)(C)CCC(=O)N(C)[C@@H](C)C(=O)O[C@H]1CC(=O)N(C)c2cc(cc(OC)c2Cl)C/C(C)=C/C=C/[C@@H](OC)[C@@]2(O)C[C@H](OC(=O)N2)[C@@H](C)[C@@H]2O[C@@]12C` [Example 11, L-DM4-AcNMe-PEG4-COOMe], the results for the IC50 in the assay on MDA-MB231 and with HCT116 were 28.3 nM and 18.5 nM, respectively.
For the molecule `COC(=O)CCOCCOCCOCCOC/C=C/CSC(C)(C)CCC(=O)N(C)[C@@H](C)C(=O)O[C@H]1CC(=O)N(C)c2cc(cc(OC)c2Cl)C/C(C)=C/C=C/[C@@H](OC)[C@@]2(O)C[C@H](OC(=O)N2)[C@@H](C)[C@@H]2O[C@@]12C` [Example 12, L-DM4-Allyl-PEG4-COOMe], the results for the IC50 in the assay with MDA-MB231 and with HCT116 were 1.5 nM and 0.8 nM, respectively.
For `COC(=O)CCOCCOCCOCCOCCNC(=O)CCN1C(=O)CC(SC(C)(C)CCC(=O)N(C)[C@@H](C)C(=O)O[C@H]2CC(=O)N(C)c3cc(cc(OC)c3Cl)C/C(C)=C/C=C/[C@@H](OC)[C@@]3(O)C[C@H](OC(=O)N3)[C@@H](C)[C@@H]3O[C@@]23C)C1=O` (stereo partly drawn) [Example 14, L-DM4-Mal-PEG4-COOMe] the same measures were 31.7 nM and 33.6 nM.
